# Test results published in patent publication US10961215B2, “N-aryl and N-heteroaryl piperidine derivatives as liver X receptor beta agonists, compositions, and their use” (Merck Sharp & Dohme Corp., priority 2016, dated 2021).
# Columns and labels:
# [1] = molecular target: T1, GST tagged LXRbeta LBD (ligand binding domain) (Homo sapiens, UniProt P55055); test: LanthaScreen TR-FRET Liver X Receptor Coactivator Assay, LXR beta-LBD (co-activator recruitment; IP and % Emax relative to T0901317); type: biochemical; settings: for EC50: Inflection Point of co-activator recruitment, LXR beta-LBD, TR-FRET; for Emax: efficacy at max dose in relation to reference T0901317, LXR beta-LBD, read-out: LXR beta actiivty at max dose (%)
# T1 construct: purchased Invitrogen pv4658.pps
# T1 sequence (P55055 222-460 limits assumed): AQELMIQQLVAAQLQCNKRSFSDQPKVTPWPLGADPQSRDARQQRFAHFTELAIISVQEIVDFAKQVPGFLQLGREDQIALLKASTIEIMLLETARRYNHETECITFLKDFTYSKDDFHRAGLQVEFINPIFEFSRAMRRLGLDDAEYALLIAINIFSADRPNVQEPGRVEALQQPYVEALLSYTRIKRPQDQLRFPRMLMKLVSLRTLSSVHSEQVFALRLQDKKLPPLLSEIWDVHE
# In short: (§1)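 LXR LBD protein was added to test compounds, then a mix of fluorescein-labelled coactivator peptide and terbium anti-GST antibody. After incubation at room temperature, TR-FRET was read. Inflection point and Emax were derived relative to the reference dual agonist T0901317.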
# [2] = molecular target: T2, GST tagged LXRalpha LBD (ligand binding domain) (Homo sapiens, UniProt Q13133); test: LanthaScreen TR-FRET Liver X Receptor Coactivator Assay, LXR alpha-LBD (co-activator recruitment; IP and % Emax relative to T0901317); type: biochemical; settings: for EC50 / LXR alpha IP (nM): Inflection Point of co-activator recruitment, LXR alpha-LBD, TR-FRET; for Emax: efficacy at max dose in relation to reference T0901317, LXR alpha-LBD, read-out: LXR alpha actiivty at max dose (%)
# T2 construct: purchased Invitrogen pv4655
# T2 sequence (Q13133 209-447 limits assumed): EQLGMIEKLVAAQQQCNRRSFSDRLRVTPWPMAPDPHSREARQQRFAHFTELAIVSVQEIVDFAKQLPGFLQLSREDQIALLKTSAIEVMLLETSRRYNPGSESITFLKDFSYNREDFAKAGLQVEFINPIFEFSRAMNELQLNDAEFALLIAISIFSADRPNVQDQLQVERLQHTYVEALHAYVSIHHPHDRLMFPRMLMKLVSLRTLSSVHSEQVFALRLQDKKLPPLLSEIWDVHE
# In short: as §1
smiles,measurement,setting,value
"CN(C)C(=O)c1ccc(N2CCC(CCCN(C)C(=O)[C@@]3(C(F)(F)F)CCCO3)CC2)nc1Cl [Example 1-7, (R)-2-chloro-N,N-dimethyl-6-(4-(3-(N-methyl-2-(trifluoromethyl)-tetrahydrofuran-2-carboxamido)propyl)piperidin-1-yl)nicotinamide]",EC50,[1],144 nM
same,Emax,[1],94%
same,EC50,[2],2520 nM
same,Emax,[2],57%
"CC(C)[C@](O)(C(=O)N(C)CCCC1CCN(c2ccc(C(=O)N(C)C)c(Cl)n2)CC1)c1ccccc1 [Example 1-2, (R)-2-chloro-6-(4-(3-(2-hydroxy-N,3-dimethyl-2-phenylbutanamido)propyl)piperidin-1-yl)-N,N-dimethylnicotinamide]",EC50,[1],259 nM
same,Emax,[1],68%
same,LXR alpha IP (nM),[2],No IP
same,Emax,[2],16%
"COc1cccc([C@@](O)(C(=O)N(C)CCCC2CCN(c3ccc(C(=O)N(C)C)c(Cl)c3)CC2)C(F)(F)F)c1 [Example 4-1, (R)-2-chloro-N,N-dimethyl-4-(4-(3-(3,3,3-trifluoro-2-hydroxy-2-(3-methoxyphenyl)-N-methylpropanamido)propyl)piperidin-1-yl)benzamide]",EC50,[1],247 nM
same,Emax,[1],59%
same,LXR alpha IP (nM),[2],No IP
same,Emax,[2],8%
"CC(C)NC(=O)c1ccc(N2CCC3(CC2)C[C@H]3CCN(C)C(=O)[C@](O)(c2ccccc2)C(F)(F)F)cc1Cl [Example 7-28, 2-chloro-N-isopropyl-4-((S)-1-(2-((R)-3,3,3-trifluoro-2-hydroxy-N-methyl-2-phenylpropanamido)ethyl)-6-azaspiro[2.5]octan-6-yl)benzamide]",EC50,[1],1620 nM
same,Emax,[1],31%
same,LXR alpha IP (nM),[2],No IP
same,Emax,[2],6%
CN(C)C(=O)c1ccc(N2CCC([C@@H]3C[C@H]3CN(C)C(=O)[C@](O)(c3ccccc3)C(F)(F)F)CC2)nc1Cl [Example 15-15],EC50,[1],186 nM
same,Emax,[1],75%
same,EC50,[2],6070 nM
same,Emax,[2],23%
"CN(C)C(=O)c1ccc(N2CCC(F)(CCCN(C)C(=O)[C@](O)(c3ccccc3)C(F)(F)F)CC2)nc1Cl [Example 12-4, (R)-2-chloro-6-(4-fluoro-4-(3-(3,3,3-trifluoro-2-hydroxy-N-methyl-2-phenylpropanamido)propyl)piperidin-1-yl)-N,N-dimethylnicotinamide]",EC50,[1],266 nM
same,Emax,[1],46%
same,LXR alpha IP (nM),[2],No IP
same,Emax,[2],0%
"CN(C)C(=O)c1ccc(N2CCC(CCCN(C)C(=O)C3(c4ccccc4)CCOCC3)CC2)nc1Cl [Example 1-17, 2-chloro-N,N-dimethyl-6-(4-(3-(N-methyl-4-phenyl-tetrahydro-2H-pyran-4-carboxamido)propyl)piperidin-1-yl)nicotinamide]",EC50,[1],290 nM
same,Emax,[1],55%
same,LXR alpha IP (nM),[2],No IP
same,Emax,[2],7%
"CN(C)C(=O)c1ccc(N2CCC3(CC2)CC3CCCNC(=O)[C@](O)(c2ccccc2)C(F)(F)F)cc1Cl (stereo partly drawn) [Example 7-35, 2-chloro-N,N-dimethyl-4-(1-(3-((R)-3,3,3-trifluoro-2-hydroxy-2-phenylpropanamido)propyl)-6-azaspiro[2.5]octan-6-yl)benzamide]",EC50,[1],435 nM
same,Emax,[1],46%
same,LXR alpha IP (nM),[2],No IP
same,Emax,[2],0%
"CCOc1cccc([C@@](O)(C(=O)NCCCC2CCN(c3ccc(C(=O)N(C)C)c(Cl)n3)CC2)C(F)(F)F)c1 [Example 5-10, (R)-2-chloro-6-(4-(3-(2-(3-ethoxyphenyl)-3,3,3-trifluoro-2-hydroxy-propanamido)propyl)piperidin-1-yl)-N,N-dimethylnicotinamide]",EC50,[1],343 nM
same,Emax,[1],58%
same,LXR alpha IP (nM),[2],No IP
same,Emax,[2],3%
"CN(C)C(=O)c1ccc(N2CCC(CCCN(C)C(=O)C(C)(C)c3ccccc3)CC2)cc1Cl [Example 4-5, 2-chloro-4-(4-(3-(N,2-dimethyl-2-phenylpropanamido)propyl)piperidin-1-yl)-N,N-dimethylbenzamide]",EC50,[1],229 nM
same,Emax,[1],50%
same,LXR alpha IP (nM),[2],No IP
same,Emax,[2],8%
"CN(C)C(=O)c1ccc(N2CCC(CCCN(C)C(=O)[C@@]3(c4ccccc4Cl)CCCO3)CC2)nc1Cl [Example 1-64, (S)-2-chloro-6-(4-(3-(2-(2-chlorophenyl)-N-methyltetrahydrofuran-2-carboxamido)propyl)piperidin-1-yl)-N,N-dimethylnicotinamide]",EC50,[1],285 nM
same,Emax,[1],26%
same,LXR alpha IP (nM),[2],No IP
same,Emax,[2],0%
"COc1cccc([C@@](O)(C(=O)N(C)CC[C@@H]2CC23CCN(c2ccc(C(=O)N(C)C)c(Cl)c2)CC3)C(F)(F)F)c1 [Example 7-22, 2-chloro-N,N-dimethyl-4-((S)-1-(2-((R)-3,3,3-trifluoro-2-hydroxy-2-(3-methoxyphenyl)-N-methylpropanamido)ethyl)-6-azaspiro[2.5]octan-6-yl)benzamide]",EC50,[1],572 nM
same,Emax,[1],43%
same,LXR alpha IP (nM),[2],No IP
same,Emax,[2],3%
"COc1cccc([C@@](O)(C(=O)N(C)CC[C@H]2CC23CCN(c2ccc(C(=O)NC4CC4)c(Cl)n2)CC3)C(F)(F)F)c1 [Example 7-16, 2-chloro-N-cyclopropyl-6-((R)-1-(2-((R)-3,3,3-trifluoro-2-hydroxy-2-(3-methoxyphenyl)-N-methylpropanamido)ethyl)-6-azaspiro[2.5]octan-6-yl)nicotinamide]",EC50,[1],101 nM
same,Emax,[1],54%
same,EC50,[2],1790 nM
same,Emax,[2],40%
"CNC(=O)c1ccc(N2CCC(CC3CC(NC(=O)[C@](O)(c4ccccc4)C(F)(F)F)C3)CC2)cc1Cl (stereo partly drawn) [Example 11-3, (R)-2-chloro-N-methyl-4-(4-((3-(3,3,3-trifluoro-2-hydroxy-2-phenylpropanamido)cyclobutyl)methyl)piperidin-1-yl)benzamide]",EC50,[1],508 nM
same,Emax,[1],93%
same,EC50,[2],6010 nM
same,Emax,[2],22%
"CN(C)C(=O)c1ccc(N2CCC3(CC2)CC3CCCN(C)C(=O)C(C)(C)c2ccccc2)cc1Cl (stereo not drawn) [Example 7-34, 2-chloro-4-(1-(3-(N,2-dimethyl-2-phenylpropanamido)propyl)-6-azaspiro[2.5]octan-6-yl)-N,N-dimethylbenzamide]",EC50,[1],264 nM
same,Emax,[1],23%
same,LXR alpha IP (nM),[2],No IP
same,Emax,[2],0%
"CN(C)C(=O)c1ccc(N2CCC(CCCNC(=O)[C@]3(c4ccccc4)CCCO3)CC2)nc1Cl [Example 5-19, (R)-2-chloro-N,N-dimethyl-6-(4-(3-(2-phenyltetrahydrofuran-2-carboxamido)propyl)piperidin-1-yl)nicotinamide]",EC50,[1],160 nM
same,Emax,[1],104%
same,EC50,[2],2340 nM
same,Emax,[2],36%
"CN(C)C(=O)c1ccc(N2CCC(CCCN(C)C(=O)[C@](O)(c3cccc(C4CC4)c3)C(F)(F)F)CC2)nc1Cl [Example 1-33, (R)-2-chloro-6-(4-(3-(2-(3-cyclopropylphenyl)-3,3,3-trifluoro-2-hydroxy-N-methylpropanamido)propyl)piperidin-1-yl)-N,N-dimethylnicotinamide]",EC50,[1],17 nM
same,Emax,[1],70%
same,LXR alpha IP (nM),[2],No IP
same,Emax,[2],0%
"COc1cccc([C@@](O)(C(=O)N(C)C2CC(CC3CCN(c4ccc(C(=O)N(C)C)c(C)n4)CC3)C2)C(F)(F)F)c1 (single isomer, unassigned) [Example 11-1]",EC50,[1],727 nM
same,Emax,[1],42%
same,LXR alpha IP (nM),[2],No IP
same,Emax,[2],0%
